The text below walks through data of patent US12391677B2, “Thyroid hormone receptor agonists” (INVENTISBIO CO., LTD., priority 2018, dated 2025).

Molecules are shown by their SMILES. Where only a bound is given, the exact number is not on record here.

Assay [1] deals with ligand binding domain of thyroid hormone receptor beta (Homo sapiens (Human), UniProt P10828). Put plainly: Thyroid hormone receptor TR-FRET binding assay (TRβ LBD). The following applies: TRβ LBD 2 nM. How it is done: (§1) TR-FRET binding assay was used to test representative compounds herein.
(§2) The ligand binding domain of thyroid hormone receptor alpha and the ligand binding domain of thyroid hormone receptor beta with GST tag were purchased from Invitrogen. Biotin-SRC2-2 coactivator peptide was purchased from Sangon Biotech, Europium anti-GST and Streptavidin-D2 was from Cisbio.
(§3) Five microliters of 4× compound serial dilution was added in the 384-well plate, white, low volume, round-bottom assay plate. […] Centrifuge the assay plates at 1000 g for 1 min and incubate 1 hr at RT, protected from light. […] Calculate EC50 by fitting % Activity values and log of compound concentrations to nonlinear regression (dose response—variable slope) with Graphpad 5.0.
(Time-resolved FRET reads energy transfer from a long-lived donor to a nearby acceptor.)

The target of assay [2] is TRβ-GAL4 binding domain chimeric receptors (Homo sapiens (Human), UniProt P10828). Put plainly: Thyroid hormone receptor cell assay (GAL4 luciferase reporter in HEK293-LUC cells). The format is cell-based. The source says: TRα-LBD or TRβ-LBD, coding sequence was inserted into pBIND expression vector (Promega, E1581) to express TRβ-GAL4 binding domain chimeric receptors. This expression vector was transfected into HEK293-LUC host cells with reporter vector (pGL4.35 which carry a stably integrated GAL4 promoter driven luciferase reporter gene). Upon agonist binding to the corresponding TRa-GAL4 or TRb-GAL4 chimeric receptor, the chimeric receptor binds to the GAL4 binding sites and stimulates the reporter gene.
Seed 2.5×10^6 HEK293-LUC cells into a 60 mm dish and incubated for 16 h at 37° C. under 5% CO2 atmosphere. Mix 12 microliters of Lipo LTX reagent in 250 microliters of Opti-MEM Medium by inversion. Mix 6 ug of DNA in 250 uL of Opti-MEM medium, then add 6 uL of Lipo PLUS Reagent. Add diluted DNA to each tube of diluted Lipo LTX Reagent (1:1 ratio), and mix by Pipettor and incubate at room temperature for 10 min. The reagent mixture was added to a 60 mm dish, incubated with cells for 4-7 h at 37 degrees under 5% CO2 atmosphere.
75 nL compound was added into 384 well assay plate using ECHO550 and then add HEK293-LUC cells (transfected, 17,000 cells/well) into the plate using phenol red-free DMEM containing 5% charcoal/dextran-treated FBS and incubated for 16-20 h at […] under 5% CO2 atmosphere. Add 25 uL of Steady-Glo Luciferase Assay Reagent into each well. Shake for 5 min and then record the luminescence value on Envision 2104 plate reader.
(In a reporter assay the amount or activity of a reporter protein is the signal.)

Assay [3] addresses ligand binding domain of thyroid hormone receptor alpha (Homo sapiens (Human), UniProt P10827). Put plainly: Thyroid hormone receptor TR-FRET binding assay (TRα LBD). Conditions: TRα LBD 4 nM. How it is done:
as §1, §2, §3

Chain of TRβ-GAL4 binding domain chimeric receptors (P10828 217-461, stated change not applied): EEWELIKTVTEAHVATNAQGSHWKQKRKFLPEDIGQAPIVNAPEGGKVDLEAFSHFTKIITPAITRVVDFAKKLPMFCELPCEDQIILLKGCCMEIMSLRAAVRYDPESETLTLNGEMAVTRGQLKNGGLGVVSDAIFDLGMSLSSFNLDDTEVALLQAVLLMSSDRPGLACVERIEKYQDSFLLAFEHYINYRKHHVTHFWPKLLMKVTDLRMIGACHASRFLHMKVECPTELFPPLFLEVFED
Chain of ligand binding domain of thyroid hormone receptor beta (P10828 217-461): as the sequence (P10828 217-461, stated change not applied) above
Chain of ligand binding domain of thyroid hormone receptor alpha (P10827 other isoform, or with tags, fused parts or gaps del 1-162, other chains not shown): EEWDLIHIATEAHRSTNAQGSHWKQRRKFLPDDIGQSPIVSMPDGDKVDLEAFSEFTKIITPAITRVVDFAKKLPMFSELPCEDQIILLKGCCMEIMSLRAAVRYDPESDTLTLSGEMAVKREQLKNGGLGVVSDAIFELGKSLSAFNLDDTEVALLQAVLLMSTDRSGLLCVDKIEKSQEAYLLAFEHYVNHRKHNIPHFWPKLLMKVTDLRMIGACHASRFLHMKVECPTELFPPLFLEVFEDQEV

`CC(c1ccccc1)c1cc(Oc2c(Cl)cc(-n3nc(C#N)c(=O)[nH]c3=O)cc2C(F)(F)F)n[nH]c1=O` (racemic) [Compound 94]: in assay [1], the EC50 (commonly the concentration at which the effect is half-maximal) turned out to be 0.5 µM.

Turning to `CC(c1cc(Oc2c(Cl)cc(-n3nc(C#N)c(=O)[nH]c3=O)cc2C(F)(F)F)n[nH]c1=O)C1CCCCC1` (racemic) [Compound 97], the response in assay [1] was half-maximal at 0.26 µM (EC50). On to `Cc1nn(-c2cc(Cl)c(Oc3cc([C@@H](C)c4ccccc4)c(=O)[nH]n3)c(Cl)c2)c(=O)[nH]c1=O` (single isomer, unassigned) [Compound 71], for which the values for the EC50 in assay [2], in assay [3] and in assay [1] were 0.46 µM, 14.6 µM and 0.3 µM, respectively. On to `Cc1nn(-c2cc(Cl)c(Oc3cc([C@H](C)c4ccccc4)c(=O)[nH]n3)c(Cl)c2)c(=O)[nH]c1=O` (single isomer, unassigned) [Compound 72], for which the 50% effective concentration (EC50) in assay [3] worked out at 90 µM; in assay [1], 3.47 µM. In the case of `Cc1nn(-c2cc(Cl)c(Oc3cc(C(C)C4CCCCC4)c(=O)[nH]n3)c(Cl)c2)c(=O)[nH]c1=O` (single isomer, unassigned) [Compound 76], the EC50 turned out to be 43.4 µM in assay [3] and 1.05 µM in assay [1]. Consider `CC(c1ccccc1)c1cc(Oc2c(Cl)cc(-n3nc(C#N)c(=O)[nH]c3=O)cc2Cl)n[nH]c1=O` (single isomer, unassigned) [Compound 88], for which, in assay [1], the EC50 amounted to 3.21 µM. `CC(c1ccccc1)c1cc(Oc2c(Cl)cc(-n3nc(C#N)c(=O)[nH]c3=O)cc2Cl)n[nH]c1=O` (single isomer, unassigned) [Compound 89]: in assay [1], it took 0.36 µM to reach a half-maximal effect (EC50). Regarding `CC(c1cc(Oc2c(Cl)cc(-n3nc(C#N)c(=O)[nH]c3=O)cc2Cl)n[nH]c1=O)C1CCCCC1` (single isomer, unassigned) [Compound 92], the results for the EC50 in assay [2] and in assay [1] were 13.6 µM and 0.29 µM, respectively.

In assay [1], `CC(c1cc(Oc2c(Cl)cc(-n3nc(C#N)c(=O)[nH]c3=O)cc2Cl)n[nH]c1=O)C1CCCCC1` (single isomer, unassigned) [Compound 93] came in with an EC50 of 1.56 µM. For `CC(c1ccccc1)c1cc(Oc2c(Cl)cc(-n3nc(C#N)c(=O)[nH]c3=O)cc2C(F)(F)F)n[nH]c1=O` (single isomer, unassigned) [Compound 95], the response in assay [1] was half-maximal at 0.24 µM (EC50). On the same count and under the same terms, the figure for `CC(c1ccccc1)c1cc(Oc2c(Cl)cc(-n3nc(C#N)c(=O)[nH]c3=O)cc2C(F)(F)F)n[nH]c1=O` (single isomer, unassigned) [Compound 96] is 0.84 µM. As to `CC(c1cc(Oc2c(Cl)cc(-n3nc(C#N)c(=O)[nH]c3=O)cc2C(F)(F)F)n[nH]c1=O)C1CCCCC1` (single isomer, unassigned) [Compound 98], the EC50 in assay [2] came to 5.5 µM. The same measure, in the same setting: for `CC(c1cc(Oc2c(Cl)cc(-n3nc(C#N)c(=O)[nH]c3=O)cc2C(F)(F)F)n[nH]c1=O)C1CCCCC1` (single isomer, unassigned) [Compound 99] the value was 18.5 µM.

As for `N#Cc1nn(-c2ccc(Oc3cc(C4CC4)c(=O)[nH]n3)c(Cl)c2)c(=O)[nH]c1=O` [Compound 6], the EC50 in assay [3] and in assay [1] was more than 10 µM each time.

With `Cc1nn(-c2cc(Br)c(Oc3cc(C4CCC4)c(=O)[nH]n3)c(Br)c2)c(=O)[nH]c1=O` [Compound 13], the results for the EC50 in assay [3] and in assay [1] were 1.35 µM and 0.12 µM, respectively. Turning to `CC(=O)N1CCC(c2cc(Oc3c(Cl)cc(-n4nc(C#N)c(=O)[nH]c4=O)cc3Cl)n[nH]c2=O)CC1` [Compound 19], the EC50 in assay [3] and in assay [1] was more than 90 µM in each case. Consider `N#Cc1nn(-c2cc(Cl)c(Oc3cc(-c4ccccc4)c(=O)[nH]n3)c(Cl)c2)c(=O)[nH]c1=O` [Compound 24], for which the EC50 in assay [3] and in assay [1] was more than 10 µM throughout. Regarding `N#Cc1nn(-c2cc(Cl)c(Oc3cc(CCc4ccccc4)c(=O)[nH]n3)c(Cl)c2)c(=O)[nH]c1=O` [Compound 26], the 50% effective concentration (EC50) in assay [3] and in assay [1] was more than 10 µM throughout. For the compound `N#Cc1nn(-c2cc(Cl)c(Oc3cc(Cc4cccc(O)c4)c(=O)[nH]n3)c(Cl)c2)c(=O)[nH]c1=O` [Compound 34], the EC50 in assay [3] and in assay [1] was more than 90 µM in each case.

For `CC(C)c1cc(Oc2c(Cl)cc(-n3nc(C4CC4)c(=O)[nH]c3=O)cc2Cl)n[nH]c1=O` [Compound 36], the EC50 in assay [3] was more than 90 µM; in assay [1], 11.7 µM. On to `CC(C)c1cc(Oc2c(Cl)cc(-n3nc(C(C)C)c(=O)[nH]c3=O)cc2Cl)n[nH]c1=O` [Compound 38], for which the EC50 in assay [3] and in assay [1] was more than 90 µM in each case. Regarding `Cc1cc(-n2nc(C#N)c(=O)[nH]c2=O)c(F)c(C)c1Oc1cc(C(C)C)c(=O)[nH]n1` [Compound 45], the EC50 in assay [3] is more than 10 µM; in assay [1], 4.16 µM. Regarding `Cc1nn(-c2cc(Cl)c(Oc3cc(Cc4ccc(Cl)cc4)c(=O)[nH]n3)c(Cl)c2)c(=O)[nH]c1=O` [Compound 49], the EC50 in assay [3] came out at 3.2 µM; in assay [1] it was 0.23 µM.

Regarding `N#Cc1nn(-c2cc(Cl)c(Oc3cc(CC4CCC(O)CC4)c(=O)[nH]n3)c(Cl)c2)c(=O)[nH]c1=O` (centres unmarked) [Compound 50], the EC50 in assay [3] was more than 90 µM; in assay [1] it was 8.8 µM. Regarding `N#Cc1nn(-c2cc(Cl)c(Oc3cc(CC4CCC(O)C4)c(=O)[nH]n3)c(Cl)c2)c(=O)[nH]c1=O` (centres unmarked) [Compound 51], the EC50 in assay [3] and in assay [1] was more than 90 µM in each case. As to `Cc1nn(-c2cc(Cl)c(Oc3cc(Cc4ccc(O)cc4)c(=O)[nH]n3)c(Cl)c2)c(=O)[nH]c1=O` [Compound 53], the figures for the EC50 in assay [3] and in assay [1] were 1.37 µM and 0.01 µM, respectively. In the case of `Cc1nn(-c2cc(Cl)c(Oc3cc(CC4CCC(O)CC4)c(=O)[nH]n3)c(Cl)c2)c(=O)[nH]c1=O` (centres unmarked) [Compound 55], the EC50 was found to be 8.57 µM in assay [3] and 1.07 µM in assay [1].

In the case of `N#Cc1nn(-c2cc(Cl)c(Oc3cc(Cc4ccccc4O)c(=O)[nH]n3)c(Cl)c2)c(=O)[nH]c1=O` [Compound 57], the results for the EC50 in assay [3] and in assay [1] were 90 µM and 1.63 µM, respectively. On to `Cc1nn(-c2cc(Cl)c(Oc3cc(CC4CCCC4)c(=O)[nH]n3)c(Cl)c2)c(=O)[nH]c1=O` [Compound 59], for which the EC50 in assay [3] was determined as 1.17 µM; in assay [1], 0.19 µM. In the case of `Cc1nn(-c2cc(Cl)c(Oc3cc(C(C)C4CCCCC4)c(=O)[nH]n3)c(Cl)c2)c(=O)[nH]c1=O` (centres unmarked) [Compound 61], the EC50 in assay [3] amounted to 15.6 µM; in assay [1], 0.15 µM. As to `N#Cc1nn(-c2cc(Cl)c(Oc3cc(Cc4ccccc4)c(=O)[nH]n3)c(C(F)(F)F)c2)c(=O)[nH]c1=O` [Compound 64], the EC50 in assay [3] stood at 90 µM; in assay [1], 0.24 µM. `Cc1nn(-c2cc(Cl)c(Oc3cc(Cc4cccc(F)c4)c(=O)[nH]n3)c(Cl)c2)c(=O)[nH]c1=O` [Compound 68]: the EC50 worked out at 7.82 µM in assay [3] and 0.78 µM in assay [1]. Consider `COc1ccccc1Cc1cc(Oc2c(Cl)cc(-n3nc(C)c(=O)[nH]c3=O)cc2Cl)n[nH]c1=O` [Compound 69], for which the EC50 in assay [3] was 90 µM; in assay [1] it was 2.62 µM.

For `CC(C)c1cc(Oc2c(Cl)cc(CCP(=O)(O)O)cc2Cl)n[nH]c1=O` [Compound 70], the values for the EC50 in assay [3] and in assay [1] were 90 µM and 42.4 µM, respectively. For the compound `N#Cc1nn(-c2cc(Cl)c(Oc3cc(C4CCN(Cc5ccccc5)CC4)c(=O)[nH]n3)c(Cl)c2)c(=O)[nH]c1=O` [Compound 77], the EC50 in assay [3] and in assay [1] was 90 µM in each case. Regarding `Cc1nn(-c2cc(Br)c(Oc3cc(C(=O)c4ccccc4)c(=O)[nH]n3)c(Br)c2)c(=O)[nH]c1=O` [Compound 78], the EC50 in assay [3] is 26.9 µM; in assay [1], 0.81 µM. For `N#Cc1nn(-c2cc(Cl)c(Sc3cc(Cc4ccccc4)c(=O)[nH]n3)c(Cl)c2)c(=O)[nH]c1=O` [Compound 80], the EC50 in assay [3] is 90 µM; in assay [1] it was 2.33 µM. Turning to `CC(C)c1c[nH]c2ncc(Oc3c(Cl)cc(-n4nc(C#N)c(=O)[nH]c4=O)cc3Cl)cc12` [Compound 84], in assay [1], the EC50 is 0.66 µM.

As to `Cc1cc(OCP(=O)(O)O)cc(C)c1Cc1cc(C(C)C)c(=O)[nH]n1` [Compound 85], the EC50 in assay [1] was more than 90 µM.

The compound `CC(O)(CO)c1ccc(Cc2cc(Oc3c(Cl)cc(-n4nc(C#N)c(=O)[nH]c4=O)cc3Cl)n[nH]c2=O)cc1` (centres unmarked) [Compound 86] displayed an EC50 in assay [1] of more than 90 µM.

The compound `N#Cc1nn(-c2cc(Cl)c(Oc3ccc4[nH]cc(C(N)=O)c4c3)c(Cl)c2)c(=O)[nH]c1=O` [Compound 87] yielded an EC50 in assay [1] of 1.21 µM. For the compound `CC(C)c1n[nH]c2ccc(Oc3c(Cl)cc(-n4nc(C#N)c(=O)[nH]c4=O)cc3Cl)cc12` [Compound 90], the EC50 in assay [2] turned out to be 2.76 µM; in assay [1], 0.18 µM. On to `CC(C)c1nn(-c2c(Cl)cc(-n3nc(C#N)c(=O)[nH]c3=O)cc2Cl)c2ccc(O)cc12` [Compound 91], for which the EC50 was 4.35 µM in assay [2] and 0.43 µM in assay [1].
